Reference: PMC10818380, “Triphenylphosphonium Analogs of Short Peptide Related to Bactenecin 7 and Oncocin 112 as Antimicrobial Agents” (Pharmaceutics, 2024)
Where two headings read alike, the source gives them in different places. Square brackets hold non-standard residues; d marks the D form. Peptide text beside a SMILES is read from it. * marks the point of attachment. X2 = c1ccc([P+](CCCCCCCCCCN*)(c2ccccc2)c2ccccc2)cc1; X1 = c1ccc([P+](CCN*)(c2ccccc2)c2ccccc2)cc1

How the values were obtained:
[1] = system: E. coli JW5503 (∆tolC) (KanS) pDualrep2; test: pDualrep2 double-reporter agar plate test; type: cell-based; conditions: 1 µL of 10 mM solution on agar plate
Procedure: The “pDualrep2” system was used to evaluate the mechanism of the antimicrobial action of the synthesized compounds. This system is based on the hypersensitive strain E. coli JW5503 (∆tolC) (KanS) transformed with the “pDualrep2” plasmid, which allows one to sort out suppressors of protein synthesis or SOS response inducers. Briefly, 1 µL of 10 mM water solutions of Bac(1–10), Bac(1–10, R/Y), Bac(1–10, R/Y)-Cn-TPP, TPP-C10-Bac(1–10, R/Y), and Onc112 were applied onto the agar plate that already contained a layer of the reporter strain E. coli JW5503 (∆tolC) (KanS) pDualrep2, and then the plate was incubated overnight at 37 °C. The agar plate was scanned using the ChemiDoc^TM Imaging System (Bio-Rad Laboratories, Hercules, CA, USA), containing two channels, “Cy3-blot” (553/574 nm; green pseudocolor) for Turbo Red Fluorescent Protein (TurboRFP) detection and “Cy5-blot” (588/633 nm; red pseudocolor) for Katushka2S fluorescence. […] Levofloxacin (LEV; 50 μg/mL, 1 μL) and erythromycin (ERY; 5 mg/mL, 1 μL) were utilized as positive controls for DNA and protein synthesis inhibitors, respectively.

70S E. coli ribosome = test: Competition-binding assay, displacement of BODIPY-Bac(1–10), fluorescence anisotropy; conditions: read-out: apparent dissociation constant (KD)
Procedure: 70S ribosomes were isolated from E. coli MRE600 cells according to a published procedure. The binding of BODIPY-Bac(1–10) to 70S E. coli ribosomes was performed according to the following procedure. BODIPY-Bac(1–10) (16 nM) was incubated with ribosomes (from 0.5 nM to 2000 nM) for 2 h at 26 °C in a buffer containing 20 mM of HEPES-KOH (pH 7.5), 50 mM of NH4Cl, 10 mM of Mg(CH3COO)2, 4 mM of β-mercaptoethanol, and 0.05% Tween-20. The binding affinities of peptides 1 and 2, their TPP analogs 3–5, as well as the control compounds for the E. coli ribosome were analyzed via a competition-binding assay using fluorescently labeled BODIPY-Bac(1–10) or BODIPY-ERY, as described before in [38, 54]. The fluorescent compound (16 nM) was mixed with ribosomes (84 nM for BODIPY-Bac(1–10) and 46 nM for BODIPY-ERY) in the buffer. Solutions of the tested compounds were added to the obtained complexes to final concentrations ranging from 0.01 to 100 µM. The mixtures were incubated for 2 h at 26 °C, and then the values of fluorescence anisotropy were measured with a VICTOR X5 Multilabel Plate Reader (PerkinElmer, Waltham, MA, USA) using a 384-well plate. The excitation wavelength was 485 nm, and the emission wavelength was 535 nm. From the data obtained, apparent dissociation constants were calculated.

[2] = system: E. coli SQ171 ΔtolC (A2059G) and JW5503 (∆tolC) (KanS) ermC; test: Antibacterial activity on agar plates, macrolide-resistant strains; type: cell-based; conditions: Figure 3
Procedure: Antibiotic activity was also evaluated against the following strains: E. coli JW5503 ΔtolC (KanS) ermC, modified with the plasmid pKH80 [59], providing resistance to erythromycin due to the expression of ErmC methyltransferase; E. coli SQ171 ΔtolC transformed with the pAM552 plasmid; E. coli SQ171 ΔtolC modified with the pAM552 plasmid with A2059G substitution in the 23S rRNA; E. coli JW1052 ΔmdtH; E. coli JW0912 ΔompF; and E. coli JW0368 ΔsbmA [57]. The procedure was performed as described previously in [33]. In short, Petri dishes filled with LB solid medium containing a selective antibiotic and 1.5% agar were covered with the tested strains. After that, 1 µL of 10 mM water solutions of Bac(1–10), Bac(1–10, R/Y), Bac(1–10, R/Y)-Cn-TPP, TPP-C10-Bac(1–10, R/Y), and Onc112, LEV (25 μg/mL) in water, and ERY (5 mg/mL and 50 mg/mL) in DMSO were applied onto the agar plates. After overnight incubation at 37 °C, the plates were scanned using the ChemiDoc^TM Imagining System (Bio-Rad Laboratories, Hercules, CA, USA) in three channels (Cy2, Cy3, and Cy5). The obtained images were processed in the Image Lab^TM software (Version 6.0.1, Bio-Rad).

[3] = system: bacterial translation (E. coli S30 extract); test: In vitro translation inhibition of firefly luciferase mRNA, E. coli S30 extract; type: biochemical; conditions: 30 µM
Procedure: Briefly, in vitro-transcribed firefly luciferase mRNA (fluc) was translated using the E. coli S30 Extract System for Linear Templates (Promega, Madison, WI, USA). Reaction mixtures (with a 5 μL total volume) supplemented with 0.1 mM of a mixture of all canonical amino acids, 4 U of RiboLock RNase Inhibitor (Thermo Fisher Scientific, Waltham, MA, USA), and 0.1 mM of D-luciferin (Sigma-Aldrich, Burlington, MA, USA) were pre-incubated at RT for 5 min after the addition of the tested compounds at a final concentration of 30 µM. Then, 50 ng of the mRNA was added to each reaction tube, and the mixtures were immediately subjected to continuous chemiluminescence measurements using the VICTOR X5 Multilabel Plate Reader (PerkinElmer, Waltham, MA, USA) at 37 °C for 30 min. The maximal rates of the firefly luciferase (Fluc) accumulation were calculated using the OriginPro 7.5 software. The values were normalized to a positive control (0.3% DMSO, assigned a value of 100%).

Row | Structure (SMILES) | reporter induction (Katushka2S red pseudocolor = protein synthesis inhibition) [1] | Kd (70S E. coli ribosome; Figure S3B) [nM] | bacterial growth inhibition in macrolide-resistant E. coli strains [2] | inhibition of bacterial translation of firefly luciferase (Fluc) mRNA [3] | inhibitory effect on growth of bacterial cells [1] | Kd (70S E. coli ribosome; CI (α = 0.05)) [nM]
1 | CC[C@H](C)[C@H](NC(=O)[C@@H](CCCNC(=N)N)NC(=O)[C@H](CCCNC(=N)N)NC(=O)[C@@H]1CCCN1C(=O)[C@@H]1CCCN1C(=O)[C@H](CCCNC(=N)N)NC(=O)[C@@H]1CCCN1C(=O)[C@H](CCCNC(=N)N)NC(=O)[C@@H]1CCCN1C(=O)[C@H](CC(C)C)NC(=O)[C@H](Cc1ccc(O)cc1)NC(=O)[C@@H]1CCCN1C(=O)[C@@H]1CCCN1C(=O)[C@H](CCCCN)NC(=O)[C@H](CC(=O)O)NC(=O)[C@@H](N)C(C)C)C(=O)N[C@@H](Cc1ccc(O)cc1)C(=O)N[C@@H](CC(N)=O)C(=O)N[C@H](CCCNC(=N)N)C(N)=O [Onc112, reference compound] (H-VDKPPYLPRPRPPR[dR]IYN[dR]-NH2; N-terminus assumed) | red pseudocolor reporter induction was observed | 3 ± 1 | showed activity against resistant E. coli bacteria comparable to that demonstrated in the wild type | almost completely |  | 
2 | CC[C@H](C)[C@H](NC(=O)[C@H](CCCNC(=N)N)NC(=O)[C@@H](N)CCCNC(=N)N)C(=O)N[C@@H](CCCNC(=N)N)C(=O)N1CCC[C@H]1C(=O)N[C@@H](CCCNC(=N)N)C(=O)N1CCC[C@H]1C(=O)N1CCC[C@H]1C(=O)N[C@@H](Cc1ccc(O)cc1)C(=O)N[C@@H](CC(C)C)C(=O)NCCCCCCCCCC[P+](c1ccccc1)(c1ccccc1)c1ccccc1 [Compound 4, Bac(1–10, R/Y)-C10-TPP] (H-RRIRPRPPYL-X2; N-terminus assumed) | red pseudocolor reporter induction was observed |  | showed bacterial-growth-inhibiting activity | almost completely | demonstrated an inhibitory effect on the growth of bacterial cells | 250 ± 40
3 | CC[C@H](C)[C@H](NC(=O)[C@H](CCCNC(=N)N)NC(=O)[C@@H](N)CCCNC(=N)N)C(=O)N[C@@H](CCCNC(=N)N)C(=O)N1CCC[C@H]1C(=O)N[C@@H](CCCNC(=N)N)C(=O)N1CCC[C@H]1C(=O)N1CCC[C@H]1C(=O)N[C@@H](Cc1ccc(O)cc1)C(=O)N[C@@H](CC(C)C)C(=O)NCC[P+](c1ccccc1)(c1ccccc1)c1ccccc1 [Compound 3, Bac(1–10, R/Y)-C2-TPP] (H-RRIRPRPPYL-X1; N-terminus assumed) | red pseudocolor reporter induction was observed |  | showed bacterial-growth-inhibiting activity | almost completely | demonstrated an inhibitory effect on the growth of bacterial cells | 260 ± 30
